What was measured:
Format in all cases: in vivo
Chenopodium album [1] = test: Test Example 5: herbicidal effect by foliage application, plastic box (symbol O); conditions: 320 g/ha, 3 weeks after application
In short: (§1)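 Greenhouse foliar test: seedlings at 14 days, grown 25° C. to 30° C. in sterilized diluvial soil; compound applied as an aqueous dilution of an emulsion; response read 3 weeks after spraying.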

Apera spica-venti = test: Test Example 5: herbicidal effect by foliage application, plastic box (symbol L); conditions: 320 g/ha, 3 weeks after application
In short: as §1

soybean = test: Test Example 5: effect on crop by foliage application, plastic box (symbol d); conditions: 320 g/ha, 3 weeks after application
In short: (§2)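 Seeds were sown in spots in sterilized diluvial soil held in a plastic box 21 cm × 13 cm × 7 cm deep, covered with about 1.5 cm of soil, and grown in a greenhouse at 25° C. to 30° C.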

Abutilon theophrasti = test: Test Example 4: herbicidal effect by soil treatment (symbol M); conditions: application herbicide amount 320 g/ha
In short: (§3)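 Seeds were sown in sterilized diluvial soil, covered with about 1.5 cm of soil, and the soil surface was sprayed with a water-diluted emulsion of the compound at a predetermined rate. Plants grew in a greenhouse at 25° C. to 30° C.; effects were scored visually 3 weeks after application.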

Chenopodium album [2] = test: Test Example 4: herbicidal effect by soil treatment (symbol O); conditions: application herbicide amount 320 g/ha
In short: as §3

Alopecurus myosuroides [3] = test: Test Example 4: herbicidal effect by soil treatment (symbol J); conditions: application herbicide amount 320 g/ha
In short: as §3

[4] = test system: Echinochloa crus-galli var. crus-galli; test: Test Example 3: herbicidal effect by foliage application, Wagner pot (symbol H); conditions: application herbicide amount 320 g/ha
In short: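 Weeds and rice were sown in alluvial soil under 0.1–0.5 cm of standing water and grown for 14 days in a 25–30 °C greenhouse. An emulsion of the compound, diluted in water to a set dose, was sprayed evenly onto the foliage. Effect was scored against fixed criteria 3 weeks after treatment.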

corn [5] = test: Test Example 5: effect on crop by foliage application, plastic box (symbol c); conditions: 320 g/ha, 3 weeks after application
In short: as §2

Lolium multiflorum Lam. = test: Test Example 5: herbicidal effect by foliage application, plastic box (symbol K); conditions: 320 g/ha, 3 weeks after application
In short: as §1

Alopecurus myosuroides [6] = test: Test Example 5: herbicidal effect by foliage application, plastic box (symbol J); conditions: 320 g/ha, 3 weeks after application
In short: as §1

Veronica persica = test: Test Example 5: herbicidal effect by foliage application, plastic box (symbol R); conditions: 320 g/ha, 3 weeks after application
In short: as §1

[7] = test system: Echinochloa crus-galli var. crus-galli; test: Test Example 5: herbicidal effect by foliage application, plastic box (symbol H); conditions: 320 g/ha, 3 weeks after application
In short: as §1

transplanted rice plant = test: Test Example 1: effect on crop, application before weed generation in submerged conditions (symbol a); conditions: application herbicide amount 320 g/ha
In short: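 Rice at 2.5 leaf stage transplanted into submerged soil (4 cm depth) sown with three weed species; herbicide applied before weed emergence.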

Stellaria media = test: Test Example 4: herbicidal effect by soil treatment (symbol P); conditions: application herbicide amount 320 g/ha
In short: as §3

corn [8] = test: Test Example 4: effect on crop by soil treatment (symbol c); conditions: application herbicide amount 320 g/ha
In short: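 Soil-treatment setup: crop and weed seeds were spot-sown into sterilized diluvial soil, then buried beneath approximately 1.5 cm of it, and the boxes were housed in a 25–30° C. greenhouse.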

Amaranthus retroflexus = test: Test Example 5: herbicidal effect by foliage application, plastic box (symbol N); conditions: 320 g/ha, 3 weeks after application
In short: as §1

Galium spurium = test: Test Example 4: herbicidal effect by soil treatment (symbol Q); conditions: application herbicide amount 320 g/ha
In short: as §3

Compound: CC(=O)CC1CC(O)=C(c2c(C)cc(OCc3ccccc3)cc2C)C1=O (centres unmarked) [7-018]
- O: Chenopodium album, herbicidal effect (criteria of Test Example 1) (Chenopodium album [1]): 0 (Herbicidal ratio of 5% or lower (almost no effect))
- L: Apera spica-venti, herbicidal effect (criteria of Test Example 1) (Apera spica-venti): 2 (Herbicidal ratio of 20% or higher and lower than 40%)
- d: soybean, effect on crop (criteria of Test Example 1) (soybean): 0 (Herbicidal ratio of 5% or lower (almost no effect))
- Herbicidal effect grade, M: Abutilon theophrasti (Abutilon theophrasti): 0 (Herbicidal ratio of 5% or lower (almost no effect))
- Herbicidal effect grade, O: Chenopodium album (Chenopodium album [2]): 0 (Herbicidal ratio of 5% or lower (almost no effect))
- Herbicidal effect grade, J: Alopecurus myosuroides (Alopecurus myosuroides [3]): 0 (Herbicidal ratio of 5% or lower (almost no effect))
- herbicidal effect on H (Echinochloa crus-galli var. crus-galli), grade 0-5 [4]: 3 (Herbicidal ratio of 40% or higher and lower than 70%)
- c: corn, effect on crop (criteria of Test Example 1) (corn [5]): 1 (Herbicidal ratio of 5% or higher and lower than 20%)
- K: Lolium multiflorum Lam., herbicidal effect (criteria of Test Example 1) (Lolium multiflorum Lam.): 2 (Herbicidal ratio of 20% or higher and lower than 40%)
- J: Alopecurus myosuroides, herbicidal effect (criteria of Test Example 1) (Alopecurus myosuroides [6]): 0 (Herbicidal ratio of 5% or lower (almost no effect))
- R: Veronica persica, herbicidal effect (criteria of Test Example 1) (Veronica persica): 0 (Herbicidal ratio of 5% or lower (almost no effect))
- H: Echinochloa crus-galli var. crus-galli, herbicidal effect (criteria of Test Example 1) [7]: 4 (Herbicidal ratio of 70% or higher and lower than 90%)
- Effect grade on crop, a: transplanted rice plant (transplanted rice plant): 2 (Herbicidal ratio of 20% or higher and lower than 40%)
- Herbicidal effect grade, P: Stellaria media (Stellaria media): 0 (Herbicidal ratio of 5% or lower (almost no effect))
- Effect on crop grade, c: corn (corn [8]): 0 (Herbicidal ratio of 5% or lower (almost no effect))
- N: Amaranthus retroflexus, herbicidal effect (criteria of Test Example 1) (Amaranthus retroflexus): 0 (Herbicidal ratio of 5% or lower (almost no effect))
- Herbicidal effect grade, Q: Galium spurium (Galium spurium): 0 (Herbicidal ratio of 5% or lower (almost no effect))

Compound: CC(=O)CC1CC(O)=C(c2c(C)cc(Oc3ccc(C(F)(F)F)cn3)cc2C)C1=O (centres unmarked) [7-019]
- O: Chenopodium album, herbicidal effect (criteria of Test Example 1) (Chenopodium album [1]): 0 (Herbicidal ratio of 5% or lower (almost no effect))
- L: Apera spica-venti, herbicidal effect (criteria of Test Example 1) (Apera spica-venti): 3 (Herbicidal ratio of 40% or higher and lower than 70%)
- d: soybean, effect on crop (criteria of Test Example 1) (soybean): 0 (Herbicidal ratio of 5% or lower (almost no effect))
- Herbicidal effect grade, M: Abutilon theophrasti (Abutilon theophrasti): 0 (Herbicidal ratio of 5% or lower (almost no effect))
- Herbicidal effect grade, O: Chenopodium album (Chenopodium album [2]): 0 (Herbicidal ratio of 5% or lower (almost no effect))
- Herbicidal effect grade, J: Alopecurus myosuroides (Alopecurus myosuroides [3]): 0 (Herbicidal ratio of 5% or lower (almost no effect))
- herbicidal effect on H (Echinochloa crus-galli var. crus-galli), grade 0-5 [4]: 5 (Herbicidal ratio of 90% or more (almost completely withered))
- c: corn, effect on crop (criteria of Test Example 1) (corn [5]): 2 (Herbicidal ratio of 20% or higher and lower than 40%)
- K: Lolium multiflorum Lam., herbicidal effect (criteria of Test Example 1) (Lolium multiflorum Lam.): 3 (Herbicidal ratio of 40% or higher and lower than 70%)
- J: Alopecurus myosuroides, herbicidal effect (criteria of Test Example 1) (Alopecurus myosuroides [6]): 2 (Herbicidal ratio of 20% or higher and lower than 40%)
- R: Veronica persica, herbicidal effect (criteria of Test Example 1) (Veronica persica): 0 (Herbicidal ratio of 5% or lower (almost no effect))
- H: Echinochloa crus-galli var. crus-galli, herbicidal effect (criteria of Test Example 1) [7]: 4 (Herbicidal ratio of 70% or higher and lower than 90%)
- Effect grade on crop, a: transplanted rice plant (transplanted rice plant): 0 (Herbicidal ratio of 5% or lower (almost no effect))
- Herbicidal effect grade, P: Stellaria media (Stellaria media): 0 (Herbicidal ratio of 5% or lower (almost no effect))
- Effect on crop grade, c: corn (corn [8]): 0 (Herbicidal ratio of 5% or lower (almost no effect))
- N: Amaranthus retroflexus, herbicidal effect (criteria of Test Example 1) (Amaranthus retroflexus): 0 (Herbicidal ratio of 5% or lower (almost no effect))
- Herbicidal effect grade, Q: Galium spurium (Galium spurium): 0 (Herbicidal ratio of 5% or lower (almost no effect))

Compound: COc1cc(C)c(C2=C(O)CC(CC(C)=O)C2=O)c(C)c1 (centres unmarked) [7-020]
- O: Chenopodium album, herbicidal effect (criteria of Test Example 1) (Chenopodium album [1]): 0 (Herbicidal ratio of 5% or lower (almost no effect))
- L: Apera spica-venti, herbicidal effect (criteria of Test Example 1) (Apera spica-venti): 3 (Herbicidal ratio of 40% or higher and lower than 70%)
- d: soybean, effect on crop (criteria of Test Example 1) (soybean): 0 (Herbicidal ratio of 5% or lower (almost no effect))
- Herbicidal effect grade, M: Abutilon theophrasti (Abutilon theophrasti): 0 (Herbicidal ratio of 5% or lower (almost no effect))
- Herbicidal effect grade, O: Chenopodium album (Chenopodium album [2]): 0 (Herbicidal ratio of 5% or lower (almost no effect))
- Herbicidal effect grade, J: Alopecurus myosuroides (Alopecurus myosuroides [3]): 3 (Herbicidal ratio of 40% or higher and lower than 70%)
- herbicidal effect on H (Echinochloa crus-galli var. crus-galli), grade 0-5 [4]: 4 (Herbicidal ratio of 70% or higher and lower than 90%)
- c: corn, effect on crop (criteria of Test Example 1) (corn [5]): 0 (Herbicidal ratio of 5% or lower (almost no effect))
- K: Lolium multiflorum Lam., herbicidal effect (criteria of Test Example 1) (Lolium multiflorum Lam.): 4 (Herbicidal ratio of 70% or higher and lower than 90%)
- J: Alopecurus myosuroides, herbicidal effect (criteria of Test Example 1) (Alopecurus myosuroides [6]): 4 (Herbicidal ratio of 70% or higher and lower than 90%)
- R: Veronica persica, herbicidal effect (criteria of Test Example 1) (Veronica persica): 0 (Herbicidal ratio of 5% or lower (almost no effect))
- H: Echinochloa crus-galli var. crus-galli, herbicidal effect (criteria of Test Example 1) [7]: 4 (Herbicidal ratio of 70% or higher and lower than 90%)
- Effect grade on crop, a: transplanted rice plant (transplanted rice plant): 2 (Herbicidal ratio of 20% or higher and lower than 40%)
- Herbicidal effect grade, P: Stellaria media (Stellaria media): 0 (Herbicidal ratio of 5% or lower (almost no effect))
- Effect on crop grade, c: corn (corn [8]): 0 (Herbicidal ratio of 5% or lower (almost no effect))
- N: Amaranthus retroflexus, herbicidal effect (criteria of Test Example 1) (Amaranthus retroflexus): 0 (Herbicidal ratio of 5% or lower (almost no effect))
- Herbicidal effect grade, Q: Galium spurium (Galium spurium): 0 (Herbicidal ratio of 5% or lower (almost no effect))

Compound: CC(=O)CC1CC(O)=C(c2c(C)cc(-n3cccn3)cc2C)C1=O (centres unmarked) [7-024]
- O: Chenopodium album, herbicidal effect (criteria of Test Example 1) (Chenopodium album [1]): 0 (Herbicidal ratio of 5% or lower (almost no effect))
- L: Apera spica-venti, herbicidal effect (criteria of Test Example 1) (Apera spica-venti): 1 (Herbicidal ratio of 5% or higher and lower than 20%)
- d: soybean, effect on crop (criteria of Test Example 1) (soybean): 0 (Herbicidal ratio of 5% or lower (almost no effect))
- Herbicidal effect grade, M: Abutilon theophrasti (Abutilon theophrasti): 0 (Herbicidal ratio of 5% or lower (almost no effect))
- Herbicidal effect grade, O: Chenopodium album (Chenopodium album [2]): 0 (Herbicidal ratio of 5% or lower (almost no effect))
- Herbicidal effect grade, J: Alopecurus myosuroides (Alopecurus myosuroides [3]): 0 (Herbicidal ratio of 5% or lower (almost no effect))
- herbicidal effect on H (Echinochloa crus-galli var. crus-galli), grade 0-5 [4]: 5 (Herbicidal ratio of 90% or more (almost completely withered))
- c: corn, effect on crop (criteria of Test Example 1) (corn [5]): 1 (Herbicidal ratio of 5% or higher and lower than 20%)
- K: Lolium multiflorum Lam., herbicidal effect (criteria of Test Example 1) (Lolium multiflorum Lam.): 3 (Herbicidal ratio of 40% or higher and lower than 70%)
- J: Alopecurus myosuroides, herbicidal effect (criteria of Test Example 1) (Alopecurus myosuroides [6]): 2 (Herbicidal ratio of 20% or higher and lower than 40%)
- R: Veronica persica, herbicidal effect (criteria of Test Example 1) (Veronica persica): 0 (Herbicidal ratio of 5% or lower (almost no effect))
- H: Echinochloa crus-galli var. crus-galli, herbicidal effect (criteria of Test Example 1) [7]: 5 (Herbicidal ratio of 90% or more (almost completely withered))
- Effect grade on crop, a: transplanted rice plant (transplanted rice plant): 2 (Herbicidal ratio of 20% or higher and lower than 40%)
- Herbicidal effect grade, P: Stellaria media (Stellaria media): 0 (Herbicidal ratio of 5% or lower (almost no effect))
- Effect on crop grade, c: corn (corn [8]): 0 (Herbicidal ratio of 5% or lower (almost no effect))
- N: Amaranthus retroflexus, herbicidal effect (criteria of Test Example 1) (Amaranthus retroflexus): 0 (Herbicidal ratio of 5% or lower (almost no effect))
- Herbicidal effect grade, Q: Galium spurium (Galium spurium): 0 (Herbicidal ratio of 5% or lower (almost no effect))
